Measurements published in US20250032635A1, “LIGAND-POLAR DRUG CONJUGATES” (priority 2023, published 2025).

How the values were obtained:
SK-BR-3 = test: In vitro cytotoxicity assay, SK-BR-3; assay type: cell-based; details: SK-BR-3, HER2+++
Source text: (§1) Breast cancer cell line MDA-MB-231 and SK-BR-3, gastric cancer cell line NCI-N87, ovarian cancer cell line SK-OV-3, and pancreatic cancer cell line Capan-1 were purchased from ATCC. Breast cancer cell line JIMT-1 was purchased from Deutsche Sammlung von Mikroorganismen und Zellkulturen (DSMZ, Germany). Gastric cancer cell line MKN45 was purchased from RIKEN. Human umbilical vein endothelial cell line (HUVAC) was purchased from BCRC (Bioresource Collection and Research Center, Hsinchu City, Taiwan).
(§2) Human MDR1 overexpressed NCI-N87 (NCI-N87-hMDR1) cell line was produced by lentiviral vector-mediated gene transduction. Briefly, the lentiviral transfer vector contains both hEF1α promotor-driven hMDR1 coding sequence (CDS) and hPGK promoter-driven EGFP-IRES-Puro bicistronic cassette. The lentivirus was packaged using second-generation lentiviral system in 293T cell line. After transfection, stable NCI-N87-hMDR1 was selected and maintained in puromycin (0.55 μg/mL) containing RPMI-1640 medium. JIMT-1 and MDA-MB-231 were maintained in DMEM supplemented with 10% heat-inactivated fetal bovine serum (FBS). […]
(§3) In vitro cytotoxicity assays were performed as previously described (Boyd and Paull, 1995; Phillips et al., 2008). […] IC50, the half maximal inhibitory concentration, was calculated from dose-response curves which was generated by four-parameter curve fitting.

NCI-N87 = test: In vitro cytotoxicity assay, NCI-N87; assay type: cell-based
Source text: as §1
(§4) Human MDR1 overexpressed NCI-N87 (NCI-N87-hMDR1) cell line was produced by lentiviral vector-mediated gene transduction. Briefly, the lentiviral transfer vector contains both hEF1α promotor-driven hMDR1 coding sequence (CDS) and hPGK promoter-driven EGFP-IRES-Puro bicistronic cassette. The lentivirus was packaged using second-generation lentiviral system in 293T cell line. After transfection, stable NCI-N87-hMDR1 was selected and maintained in puromycin (0.55 μg/mL) containing RPMI-1640 medium. JIMT-1 and MDA-MB-231 were maintained in DMEM supplemented with 10% heat-inactivated fetal bovine serum (FBS). NCI-N87, NCI-N87-hMDR1, SK—OV-3, and MKN45 were maintained in RPMI-1640 supplemented with 10% heat-inactivated FBS. SK-BR-3 was maintained in McCoy's 5A supplemented with 10% heat-inactivated FBS. Capan-1 was maintained in IMDM supplemented with 20% heat-inactivated FBS. HUVAC was maintained in M199 supplemented with 25 U/mL heparin, 30 μg/mL ECGS and 10% heat-inactivated FBS. All cell lines were cultured at 37° C. under 5% CO2 atmosphere.
(§5) In Vitro Cytotoxicity Assays of APDCs
as §3

JIMT-1 = test: In vitro cytotoxicity assay, JIMT-1; assay type: cell-based; details: JIMT-1, HER2++
Source text: as §1, §2, §3

Capan-1 = test: In vitro cytotoxicity assay, Capan-1; assay type: cell-based; details: Capan-1, HER2++
Source text: as §1, §2, §3

MKN45 = test: In vitro cytotoxicity assay, MKN45; assay type: cell-based; details: MKN45, HER2+
Source text: as §1, §2, §3

MDA-MB-231 = test: In vitro cytotoxicity assay, MDA-MB-231; assay type: cell-based; details: MDA-MB-231, HER2+
Source text: as §1, §2, §3

NCI-N87-hMDR1 = test: In vitro cytotoxicity assay, MDR1-overexpressing NCI-N87-hMDR1; assay type: cell-based
Procedure: as §4, §5, §3

JIMT-1 xenograft = JIMT-1 xenograft tumor model, cytotoxic APDCs; assay type: in vivo, mice; details: single intravenous injection 10 mg/kg at day zero
Procedure: Xenograft Tumor Model Experiments for Cytotoxic APDCs
Experiments of xenograft tumor model with cytotoxic APDCs were performed as previously described (Jumbe et al., 2010).

Substance: Trastuzumab emtansine [Kadcyla]
- IC50 (SK-BR-3; Table 2): 0.06 nM
- GI50 (SK-BR-3; Table 3): 0.052 nM
- IC50 (NCI-N87; NCI-N87, HER2+++, Table 2): 0.15 nM
- GI50 (NCI-N87; NCI-N87, HER2+++, Table 3): 0.24 nM
- IC50 (NCI-N87; NCI-N87, Table 4 (MDR1 comparison)): 0.38 nM
- GI50 (NCI-N87; NCI-N87, Table 5 (MDR1 comparison)): 0.53 nM
- IC50 (JIMT-1; Table 2): 14 nM
- GI50 (JIMT-1; Table 3): 15 nM
- IC50 (Capan-1; Table 2): 86 nM
- GI50 (Capan-1; Table 3): 64 nM
- IC50 (MKN45; Table 2): 52 nM
- GI50 (MKN45; Table 3): 107 nM
- IC50 (MDA-MB-231; Table 2): 62 nM
- GI50 (MDA-MB-231; Table 3): 156 nM
- IC50 (NCI-N87-hMDR1; NCI-N87-hMDR1, Table 4): 2.5 nM
- GI50 (NCI-N87-hMDR1; NCI-N87-hMDR1, Table 5): 6.7 nM
- NCI-N87/NCI-N87-hMDR1 (folds), GI50 (NCI-N87-hMDR1; ratio of GI50 values, Table 5): 13 folds
- tumor volume as a function of time (FIG. 1) (JIMT-1 xenograft): significant tumor growth
